Source: patent publication US4065356A, “Production of antibiotic FR-02A (efrotomycin) by streptomyces lactamdurans” (priority 1977, dated 1977)

Tests used:
[1] = test system: Staphylococcus aureus (MB 703); experiment: in vitro activity; assay type: cell-based
Escherichia coli 1418 = experiment: Antibiotic Spectrum Profile, agar diffusion test; assay type: cell-based; conditions: 1 mg./ml., read-out: Diameters of Inhibition Zones
[2] = test system: Streptococcus faecalis 753; experiment: Antibiotic Spectrum Profile, agar diffusion test; assay type: cell-based; conditions: Enterococcus faecalis, 1 mg./ml., read-out: Diameters of Inhibition Zones
[3] = test system: Vibrio percolans American Type Culture Collection (ATCC 8461); experiment: disc-plate assay, zone of inhibition; assay type: cell-based
Protocol: Assays were run by the disc-plate procedure using 3/8 inch filter paper discs. The assay plates were prepared using Difco nutrient agar plus 2.0 g./l. Difco yeast extract at 10 ml. per plate. An overnight growth of the assay organism, Vibrio percolans American Type Culture Collection (ATCC 8461) in nutrient broth plus 0.2% yeast extract was diluted in sterile saline solution to a suspension having 40% transmittance at a wave length of 660 mμ. This suspension was added at 20 ml./liter of medium prior to pouring the plates.
The assay plates were held at 4° C. until used (5 day maximum). Following the application of the antibiotic-saturated assay discs the plates were incubated at 28° C. for a period of from 16 to 24 hours. Zones of inhibition were read as mm. diameter. They were used to determine relative potencies or, when compared with a purified reference standard, the potency in μg./ml. Assays of FR-02A in fermentation broths, mycelia and suspended nutrient matter separated from fermentation broths and in broths free of solids were performed after extracting the FR-02A into a suitable solvent. […] When such an assay is performed in a quantitative fashion, from 50 to 100 μg./ml. of antibiotic can be detected.

Strep. faecium 2820 = experiment: Antibiotic Spectrum Profile, agar diffusion test; assay type: cell-based; conditions: Enterococcus faecium, 1 mg./ml., read-out: Diameters of Inhibition Zones
[4] = growth promotion in animals; assay type: in vivo, animals such as chickens, sheep and cattle; conditions: feed additive
[5] = test system: Pseudomonas stutzeri (MB 1231); experiment: in vitro activity; assay type: cell-based
[6] = test system: Xanthomonas vesicatoria 815; experiment: Antibiotic Spectrum Profile, agar diffusion test; assay type: cell-based; conditions: 1 mg./ml., read-out: Diameters of Inhibition Zones
E. coli (MB 1418) = experiment: in vitro activity; assay type: cell-based
[7] = test system: S. aureus (res. Erythromycin) 1909; experiment: Antibiotic Spectrum Profile, agar diffusion test; assay type: cell-based; conditions: Staphylococcus aureus, 1 mg./ml., read-out: Diameters of Inhibition Zones
M. hyorthinis = experiment: in vitro activity; assay type: cell-based
Proteus vulgaris 838 = experiment: Antibiotic Spectrum Profile, agar diffusion test; assay type: cell-based; conditions: 1 mg./ml., read-out: Diameters of Inhibition Zones
[8] = test system: Corynebacterium pseudodiphtheriticum 261; experiment: Antibiotic Spectrum Profile, agar diffusion test; assay type: cell-based; conditions: 1 mg./ml., read-out: Diameters of Inhibition Zones
M. synoviae = experiment: in vitro activity; assay type: cell-based
coccidia [9] = experiment: chicken coccidiosis; assay type: in vivo; conditions: most prevalent types
coccidia [10] = experiment: activity against coccidia; assay type: cell-based
[11] = test system: Bacillus subtilis (MB 797); experiment: in vitro activity; assay type: cell-based
Proteus vulgaris [12] = experiment: in vitro activity; assay type: cell-based
M. gallisepticum = experiment: in vitro activity; assay type: cell-based
[13] = test system: Staphylococcus aureus (MB 108); experiment: in vitro activity; assay type: cell-based
[14] = test system: Brucella bronchiseptica 965; experiment: microbe, parasite or virus in culture; assay type: cell-based; conditions: Bordetella bronchiseptica, 965, read-out: Diameters of Inhibition Zones
Vibrio percolans 1272 = experiment: Antibiotic Spectrum Profile, agar diffusion test; assay type: cell-based; conditions: Comamonas terrigena, 1 mg./ml., read-out: Diameters of Inhibition Zones
Streptococcus pyogenes = experiment: in vitro activity; assay type: cell-based
[15] = test system: Salmonealla gallinarum (MB 1287); experiment: in vitro activity; assay type: cell-based
bacteria = experiment: antibacterial activity in vivo in mice; conditions: in words
[16] = test system: Pseudomonas stutzeri (MB 2765); experiment: in vitro activity; assay type: cell-based
Proteus vulgaris [17] = experiment: in vivo test in mice, Proteus vulgaris infection; conditions: infection IP, therapy IP, at time of infection and 6 hours later
Protocol: *Values in the table are expressed in mg./mouse. Both infections and
therapeutic doses of FR-02A were administered intraperitoneally. FR-02A
was administered at time of infection and again 6 hours later.

PPLO = PPLO in cattle; assay type: in vivo

CC=CC=CC1OC(O)(C(CC)C(=O)NCC=CC=C(C)C(OC)C(C)C2OC(C=CC=CC=C(C)C(=O)c3c(O)ccn(C)c3=O)C(O)C2O)C(O)C(OC2OC(C)C(OC3OC(C)C(OC)C(O)C3OC)C(OC)C2O)C1(C)C (centres unmarked) [FR-02A, efrotomycin]
activity [1]: Activity was also found
zone of inhibition at 1000 µg/mL (Escherichia coli 1418): 15 mm
zone of inhibition at 1000 µg/mL [2]: 11 mm
zone of inhibition at 200 µg/mL ([3]; Comamonas terrigena, ATCC8461, 200 μg./ml., 3/8 inch discs, read-out: zones of inhibition): 16 mm
activity ([3]; Vibrio percolans (ATCC 8461)): Activity was also found
zone of inhibition at 1000 µg/mL (Strep. faecium 2820): 20 mm
growth promotion [4]: shortens the time required for bringing animals up to marketable weight
activity [5]: Activity was also found
zone of inhibition at 1000 µg/mL [6]: 13 mm
activity (E. coli (MB 1418)): Activity was also found
zone of inhibition at 1000 µg/mL [7]: 16 mm
in vitro activity (M. hyorthinis): effective
zone of inhibition at 1000 µg/mL (Proteus vulgaris 838): 18 mm
zone of inhibition at 1000 µg/mL [8]: 27 mm
in vitro activity (M. synoviae): effective
efficacy against chicken coccidiosis (coccidia [9]): effective
activity against coccidia (coccidia [10]): shows activity
activity [11]: Activity was also found
in vitro activity (Proteus vulgaris [12]): effective
in vitro activity (M. gallisepticum): effective
activity [13]: Activity was also found
zone of inhibition at 1000 µg/mL [14]: 18 mm
zone of inhibition at 1000 µg/mL (Vibrio percolans 1272): 21 mm
in vitro activity (Streptococcus pyogenes): effective
activity [15]: Activity was also found
antibacterial activity in vivo (bacteria): broad spectrum of antibacterial activity
activity [16]: Activity was also found
ED50 (Proteus vulgaris [17]): 1.73 mg./mouse
efficacy against PPLO (PPLO): effective
